Reference: patent publication US20070197471A1, “Treatment of degenerative cartilage conditions in a mammal with Glycosidasc Inhibitors” (Optimer Pharmaceuticals, Inc., priority 2004, published 2007)

What was measured:
[1] = system: rabbit knee after ACL transection; assay: ACL transection (ACLT) osteoarthritis model in the rabbit knee, continuous intra-articular infusion; format: in vivo; details: 8 weeks after ACLT; for chondro-degenerative pathology to the knee joint: 30 mM via Alzet pump 2.5 μl/hour intra-articular, vs saline-treated animals
Protocol: The model used in this study is the transection of the anterior cruciate ligament (ACL) in the rabbit knee. ACL transection (ACLT) causes joint instability and subsequent development of degradative and osteoarthritis-like changes.
Female New Zealand White rabbits, 3.0-3.5 kg, were used and were randomly allocated into groups of 8 rabbits. Group A was the saline-treated control group; Group B was treated with 30 mM of the hexosaminidase inhibitor (2R,3R,4R,5R)-N-methyl-(2-acetamidomethyl-3,4-dihydroxy-5-hydroxymethyl)-pyrrolidine, which is also known as OPT-66. All the compounds were delivered by a 2ml Alzet osmotic pump (Alzet 2ML4, Alza, USA). The delivery rate from the pump was 2.5 μl/hour. All rabbits received ACLT surgery on the right knee.
All rabbits were anesthetized by an intramuscular injection of ketamine (35 mg/kg) and acepromazine (2.5 mg/kg). Knees were shaved and disinfected with Antibex (Vetoquinol S.A.) solution. A medial parapatellar incision was made on the skin and a medial arthrotomy was performed. The patella was dislocated laterally and the knee was placed in full flexion. The ACL was visualized and transected with a #15 blade. Complete transection was confirmed by a manual anterior drawer test. The joint was irrigated with sterile saline then closed. Before the closure of knee joint, an Alzet pump prefilled with compounds (either with saline or with the hexosaminidase inhibitor (2R,3R,4R,5R)-N-methyl-(2-acetamidomethyl-3,4-dihydroxy-5-hydroxymethyl)-pyrrolidine, also known as OPT-66, was implanted subcutaneously in the lower right abdomen of rabbits. The pump was connected by polyethylene tubing (ID: 0.58 mm), which was inserted into the right knee joint with its tip resting in the synovial space. The joint capsule was closed with a running suture and the tubing connecting the pump was also fixed into the tissue. The skin was closed with interrupted sutures. The Alzet pumps were replaced with fresh units at the end of the fourth week after the operation.
The animals were sacrificed eight (8) weeks after ACLT. The gross morphological changes of both knees, including joint swelling and joint fluid, were evaluated.
The grading of the joint swelling is as following: 0 (normal); 1 (mild), inflammation and/or proliferation of the joint capsule; 2 (moderate), thickening of joint capsule and/or inflammation of the synovium; 3 (severe) abundant inflammation of the synovium, swelling of the menisci or ligaments (anterior or posterior cruciate ligaments).

hexosaminidase = details: read-out: Ki against hexosaminidase; cited from earlier work
cultured chondrocytes = details: cited from earlier work
[2] = system: IL-1β-infused rabbit knee joint (tibial plateau cartilage); assay: IL-1β-induced sGAG loss in rabbit knee cartilage, continuous intra-articular infusion; format: in vivo
Protocol: Female New Zealand White rabbits, 3.0-3.5 kg, were used and were randomly allocated into groups of 8 rabbits. Under aseptic conditions, 2 ml Alzet osmotic pumps (delivery flow rate: 10 μl/h, (Alzet 2ML1, Alza, USA)) were filled with IL-1β (1000 U/ml; R&D Systems, USA). Separate 2 ml Alzet pumps were filled with 30 mM of the hexosaminidase inhibitor (2R,3R,4R,5R)-N-methyl-(2-acetamidomethyl-3,4dihydroxy-5-hydroxymethyl)-pyrrolidine, also known as OPT-66, or with saline. The Alzet pumps were implanted subcutaneously in the lower abdomen of rabbits, and were connected by a polyethylene tubing (ID: 0.025 in) threaded subcutaneously to the left knee joint with their tips resting in the synovial space. The untreated contralateral knees of all animals served as negative controls. IL-1β and (2R,3R,4R,5R)-N-methyl-(2-acetamidomethyl-3,4-diydroxy-5-hydroxymethyl)-pyrrolidine were infused intra-articularly for 7 days. Immediately before surgery, and for 3 consecutive days thereafter, Marbocyl, 6 mg/kg/day, is administered (i.m.) to prevent infection. Animals were harvested on day 7. […]
Blyscan dye (Biocolor, USA) was added to each tube and vortexed. […] The absorbance of the sample was then observed at 656 nm using a spectrophotometer. […] The absorbance of the blank was subtracted from each sample. Results are expressed as micrograms of sGAG recovered per milligram wet weight of cartilage tissue.

SMILES: CC(=O)NCC1C(O)[C@H](O)C(CO)N1C (stereo partly drawn) [OPT-66, (2R,3R,4R,5R)-N-methyl-(2-acetamidomethyl-3,4-dihydroxy-5-hydroxymethyl)-pyrrolidine]
- chondro-degenerative pathology to the knee joint [1]: consistently less chondro-degenerative pathology
- chondro-degenerative pathology to the knee joint ([1]; listed as specific hexosaminidase inhibitor): chondroprotective benefit
- severity of femur lesion scores ([1]; 30 mM via Alzet pump, vs saline-treated animals (FIG. 1)): statistically significant decrease
- severity of tibia lesion scores ([1]; 30 mM via Alzet pump, vs saline-treated animals (FIG. 2)): statistically significant decrease
- joint swelling grading ([1]; 30 mM via Alzet pump, vs saline-treated animals (FIG. 3)): trend towards decreased joint-swelling
- synovial (joint) fluid grading ([1]; 30 mM via Alzet pump, vs saline-treated animals (FIG. 4)): normal levels of fluid in the knee joint
- Ki (hexosaminidase): 24 nM
- cytokine-induced loss of GAGs (cultured chondrocytes): preventing cytokine-induced loss of GAGs
- amount of recoverable sGAG per wet weight of left tibial plateau cartilage ([2]; IL-1β 1000 U/ml plus 30 mM inhibitor infused intra-articularly for 7 days (FIG. 5)): approximately 41 μg/mg
- increase of recoverable sGAG over saline-treated knees ([2]; IL-1β plus 30 mM inhibitor infused intra-articularly for 7 days): 24%
